Measured values from patent publication US8318787B2, “Prodrugs of (3,5-bis(4-fluorophenyl)tetrahydro-1H-oxazolo[3,4-C]oxazol-7A-yl)methanol and derivatives thereof” (University of Kansas, priority 2005, dated 2012).

Key:
Tubulin [1] = details: reported by Shintani et al. 1997; cited from earlier work
Tubulin [2] = test: Tubulin assembly centrifugation assay; assay type: biochemical; details: 1.0 μM compound
Experimental: In this example, the mechanism of TH-237A's neuroprotective effects was investigated. In a first experiment, the microtubule-stabilizing ability of TH-237A was investigated using a tubulin assembly centrifugation assay. Tubulin (1.0 mg/ml), free of microtubule-associated proteins (“MAPs”), was incubated in PEM buffer (0.1 M Pipes, 1 mM EGTA, 1 mM MgSO4, pH 6.9), 4% DMSO, various concentrations of paclitaxel or TH-237A, with or without 0.5 mM GTP, in a total volume of 0.1 ml for 15 minutes at 37° C. Samples were centrifuged at 50,000×g for 4 minutes in a Beckman TL-100 ultracentrifuge. Protein determinations were performed on the supernatants and the amount of polymer formed was calculated from the difference between the starting concentration and the supernatant concentration. The maximum concentration of polymer was taken to be that formed at 25 μM paclitaxel. An experiment was also done using a tubulin preparation containing microtubule-associated proteins (“MTP”) at a protein concentration of 2 mg/ml without GTP.

microtubules [3] = test: Cold stability of microtubules; assay type: biochemical; details: 25 μM compound, on ice 15 minutes
Experimental: In another experiment, the cold stability of microtubles was investigated. Microtubules were formed from MAP-free tubulin (2 mg/ml) and MTP (2 mg/ml) at 37° C. A sample was centrifuged at 50,000×g to determine the amount of polymer formed. To three other samples DMSO, 20 μM paclitaxel or 400 μM TH-237A was added, and the samples were placed on ice for 15 minutes before centrifuging at 4° C. Pellets were dissolved in 0.1 ml of 0.1 M NaOH and protein determinations were made on the supernatants and pellets. Cold-induced depolymerization leads to an increase in the supernatant protein concentration.

microtubules [4] = test: Competitive binding of paclitaxel and TH-237A to microtubules; details: addition of 40 μM Taxol
Experimental: Competitive binding of paclitaxel and TH-237A—Microtubules were formed from MTP (2 mg/ml) in the presence of 0.5 mM GTP. […] […] After 10 minutes at 37° C., the microtubules were collected by centrifugation and dissolved in 0.1 ml of 0.1 M NaOH. Protein and radioactivity determinations of the dissolved microtubules were performed.

cellular microtubules = test: Immunostaining of cellular microtubules; assay type: cell-based; details: 1 and 10 μM
Experimental: Immunostaining of cellular microtubules—Cells were grown in monolayer on sterile slide cover slips in a 6-well plate and treated with paclitaxel or TH-237A for different periods of time. The cover slips were washed with phosphate-buffered saline and the cells fixed by treatment with 95% EtOH at −20° C. for 30 minutes. The cover slips were placed in a humidified chamber and treated with the primary antibody (a mouse anti-β-tubulin monoclonal antibody) for 2 hours to overnight at room temperature. This was followed by washing with phosphate-buffered saline and treatment with the secondary antibody (FITC goat anti-mouse) for 1 hour at room temperature. Cover slips were examined on a Nikon Optiphot fluorescence microscope.

in vitro = details: bovine, pH 7.4
Experimental: The BBMECs were grown on 0.4 μm polycarbonate membranes. […] Transport studies were performed in pH 7.4 standard buffer solutions, consisting of either Hank's balanced salt solution (HBSS) or phosphate buffered saline (PBS) supplemented with 0.63 mM CaCl2, 0.74 mM MgSO4, 5.3 mM glucose and 0.1 mM ascorbic acid (PBSA). Briefly, all studies were performed in 3 ml of PBSA in each donor and receiver chamber of the side-by-side diffusion chambers and stirred at 600 rpm at 37° C. The cells were allowed to equilibrate in PBSA for 30 minutes prior to each experiment and oriented such that apical or blood side of the cells face the donor chamber and the basolateral or brain side of the cells adhere to the polycarbonate membranes and face the receiver chamber of the diffusion apparatus. At each time point, a 100 μl sample was taken from the receiver compartment and immediately replaced with an equal volume of PBSA. The transport studies were performed in the presence or absence of CsA (5-10 μM). Monolayers were checked for trypan blue exclusion after experiments as well to assess general cell viability. The permeability of all monolayers used in these experiments was monitored for [^14C] sucrose leakage as a measure of potential TH-237A-induced loss of integrity. The radioactivity was quantified using liquid scintillation spectrometry.

## OCC12CO[C@H](c3ccc(F)cc3)N1[C@@H](c1ccc(F)cc1)OC2 [GS-164, (3R,5R)-(3,5-bis(4-fluorophenyl)tetrahydro-1H-oxazolo[3,4-c]oxazol-7a-yl)methanol]
Tubulin [1]
  stimulation of tubulin polymerization relative to paclitaxel: one-tenth

## CC(=O)O[C@H]1C(=O)[C@@]2(C)[C@H]([C@H](OC(=O)c3ccccc3)[C@]3(O)C[C@H](OC(=O)[C@H](O)[C@@H](NC(=O)c4ccccc4)c4ccccc4)C(C)=C1C3(C)C)[C@]1(OC(C)=O)CO[C@@H]1C[C@@H]2O [Taxol, Paclitaxel]
Tubulin [2]
  % of tubulin polymerized: 75%
Microtubules [3]
  cold-induced depolymerization of microtubules prevented: ~100%
Microtubules [4]
  displacement of bound labeled TH-237A (100 μM) from microtubules: about 5%
Cellular microtubules
  polymerization of the microtubules in situ in the cells: clearly evident
In vitro
  Papp: 5 ×10⁻⁶ cm/s
